# Test results reported in ChEMBL document CHEMBL4184210, “Optimization of novel monobactams with activity against carbapenem-resistant Enterobacteriaceae - Identification of LYS228” (Bioorg Med Chem Lett, 2018).
# Assays:
# Escherichia coli [1] = experiment: Antimicrobial activity against Escherichia coli expressing beta-lactamase KPC-2 by CLSI broth microdilution method; assay type: functional
# Escherichia coli [2] = experiment: Antimicrobial activity against Escherichia coli expressing beta-lactamase VEB-1 by CLSI broth microdilution method; assay type: functional
# Escherichia coli [3] = experiment: Antimicrobial activity against Escherichia coli expressing beta-lactamase NDM-1 by CLSI broth microdilution method; assay type: functional
# Escherichia coli [4] = experiment: Antimicrobial activity against Escherichia coli expressing beta-lactamase NDM-5 by CLSI broth microdilution method; assay type: functional
# [5] = Chemical stability in pH 7.4 potassium phosphate buffer assessed as half life for compound hydrolysis at 37 degC by UPLC and mass spectrometry; assay type: physicochemical
# Beta-lactamase SHV-12 = biological target: T1, Beta-lactamase SHV-12 (Escherichia coli, UniProt Q7X574); experiment: Stability assessed as assessed as Escherichia coli beta-lactamase SHV-12-mediated compound hydrolysis by measuring molar enthalpy of hydrolysis at 1 mM by isothermal titration calorimetry; assay type: ADME; conditions: 1000 µM
# T1 sequence (Q7X574 whole entry): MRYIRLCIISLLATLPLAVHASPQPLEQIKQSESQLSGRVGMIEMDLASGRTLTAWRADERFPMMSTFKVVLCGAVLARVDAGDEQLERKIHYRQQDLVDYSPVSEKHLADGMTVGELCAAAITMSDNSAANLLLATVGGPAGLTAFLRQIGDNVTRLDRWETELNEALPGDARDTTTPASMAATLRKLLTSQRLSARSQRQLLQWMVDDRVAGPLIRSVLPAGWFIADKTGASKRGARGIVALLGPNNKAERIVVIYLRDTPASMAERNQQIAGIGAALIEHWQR
# [6] = Stability assessed as assessed as Escherichia coli beta-lactamase CTX-M-15-mediated compound hydrolysis by measuring molar enthalpy of hydrolysis at 1 mM by isothermal titration calorimetry; assay type: ADME; conditions: 1000 µM
# [7] = Stability assessed as assessed as Escherichia coli beta-lactamase KPC-2-mediated compound hydrolysis by measuring molar enthalpy of hydrolysis at 1 mM by isothermal titration calorimetry; assay type: ADME; conditions: 1000 µM
# Escherichia coli [8] = experiment: microbe, parasite or virus in culture
# Description: Antimicrobial activity against wild type Escherichia coli by CLSI broth microdilution method
# Escherichia coli [9] = experiment: microbe, parasite or virus in culture; remark: listed apart in the source
# Description: Antimicrobial activity against Escherichia coli expressing beta-lactamase CTXM-3 by CLSI broth microdilution method
# Escherichia coli [10] = experiment: microbe, parasite or virus in culture; remark: listed apart in the source
# Description: Antimicrobial activity against Escherichia coli expressing beta-lactamase CTXM-15 by CLSI broth microdilution method
# Escherichia coli [11] = experiment: microbe, parasite or virus in culture; remark: listed apart in the source
# Description: Antimicrobial activity against Escherichia coli expressing beta-lactamase GES-1 by CLSI broth microdilution method
# Escherichia coli [12] = experiment: microbe, parasite or virus in culture; remark: listed apart in the source
# Description: Antimicrobial activity against Escherichia coli expressing beta-lactamase IMI-1 by CLSI broth microdilution method
# Escherichia coli [13] = experiment: microbe, parasite or virus in culture; remark: listed apart in the source
# Description: Antimicrobial activity against Escherichia coli expressing beta-lactamase KPC-3 by CLSI broth microdilution method
# Escherichia coli [14] = experiment: microbe, parasite or virus in culture; remark: listed apart in the source
# Description: Antimicrobial activity against Escherichia coli expressing beta-lactamase KPC-4 by CLSI broth microdilution method
# Escherichia coli [15] = experiment: microbe, parasite or virus in culture; remark: listed apart in the source
# Description: Antimicrobial activity against Escherichia coli expressing beta-lactamase KPC-8 by CLSI broth microdilution method
# Escherichia coli [16] = experiment: microbe, parasite or virus in culture; remark: listed apart in the source
# Description: Antimicrobial activity against Escherichia coli expressing beta-lactamase NMC-A by CLSI broth microdilution method
# Escherichia coli [17] = experiment: microbe, parasite or virus in culture; remark: listed apart in the source
# Description: Antimicrobial activity against Escherichia coli expressing beta-lactamase PER-1 by CLSI broth microdilution method
# Escherichia coli [18] = experiment: microbe, parasite or virus in culture; remark: listed apart in the source
# Description: Antimicrobial activity against Escherichia coli expressing beta-lactamase PER-2 by CLSI broth microdilution method
# Escherichia coli [19] = experiment: microbe, parasite or virus in culture; remark: listed apart in the source
# Description: Antimicrobial activity against Escherichia coli expressing beta-lactamase PER-4 by CLSI broth microdilution method
# Escherichia coli [20] = experiment: microbe, parasite or virus in culture; remark: listed apart in the source
# Description: Antimicrobial activity against Escherichia coli expressing beta-lactamase SHV-12 by CLSI broth microdilution method
# Escherichia coli [21] = experiment: microbe, parasite or virus in culture; remark: listed apart in the source
# Description: Antimicrobial activity against Escherichia coli expressing beta-lactamase SME-1 by CLSI broth microdilution method
# Escherichia coli [22] = experiment: microbe, parasite or virus in culture; remark: listed apart in the source
# Description: Antimicrobial activity against Escherichia coli expressing beta-lactamase VEB-4 by CLSI broth microdilution method
# Escherichia coli [23] = experiment: microbe, parasite or virus in culture; remark: listed apart in the source
# Description: Antimicrobial activity against Escherichia coli expressing beta-lactamase VEB-7 by CLSI broth microdilution method
# Escherichia coli [24] = experiment: microbe, parasite or virus in culture; remark: listed apart in the source
# Description: Antimicrobial activity against Escherichia coli expressing beta-lactamase TEM-10 by CLSI broth microdilution method
# Escherichia coli [25] = experiment: microbe, parasite or virus in culture; remark: listed apart in the source
# Description: Antimicrobial activity against Escherichia coli expressing beta-lactamase TEM-16 by CLSI broth microdilution method
# Escherichia coli [26] = experiment: microbe, parasite or virus in culture; remark: listed apart in the source
# Description: Antimicrobial activity against Escherichia coli expressing beta-lactamase TEM-24 by CLSI broth microdilution method
# Escherichia coli [27] = experiment: microbe, parasite or virus in culture; remark: listed apart in the source
# Description: Antimicrobial activity against Escherichia coli expressing beta-lactamase TEM-47 by CLSI broth microdilution method
# Escherichia coli [28] = experiment: microbe, parasite or virus in culture; remark: listed apart in the source
# Description: Antimicrobial activity against Escherichia coli expressing beta-lactamase TEM-121 by CLSI broth microdilution method
# Escherichia coli [29] = experiment: microbe, parasite or virus in culture; remark: listed apart in the source
# Description: Antimicrobial activity against Escherichia coli expressing beta-lactamase GIM-1 by CLSI broth microdilution method
# Escherichia coli [30] = experiment: microbe, parasite or virus in culture; remark: listed apart in the source
# Description: Antimicrobial activity against Escherichia coli expressing beta-lactamase IMP-1 by CLSI broth microdilution method
# Escherichia coli [31] = experiment: microbe, parasite or virus in culture; remark: listed apart in the source
# Description: Antimicrobial activity against Escherichia coli expressing beta-lactamase SPM-1 by CLSI broth microdilution method
# Escherichia coli [32] = experiment: microbe, parasite or virus in culture; remark: listed apart in the source
# Description: Antimicrobial activity against Escherichia coli expressing beta-lactamase VIM-1 by CLSI broth microdilution method
# Escherichia coli [33] = experiment: microbe, parasite or virus in culture; remark: listed apart in the source
# Description: Antimicrobial activity against Escherichia coli expressing beta-lactamase AmpC by CLSI broth microdilution method
# Escherichia coli [34] = experiment: microbe, parasite or virus in culture; remark: listed apart in the source
# Description: Antimicrobial activity against Escherichia coli expressing beta-lactamase DHA by CLSI broth microdilution method
# Escherichia coli [35] = experiment: microbe, parasite or virus in culture; remark: listed apart in the source
# Description: Antimicrobial activity against Escherichia coli expressing beta-lactamase CMY-2 by CLSI broth microdilution method
# Escherichia coli [36] = experiment: microbe, parasite or virus in culture; remark: listed apart in the source
# Description: Antimicrobial activity against Escherichia coli expressing beta-lactamase MIR-1 by CLSI broth microdilution method
# Escherichia coli [37] = experiment: microbe, parasite or virus in culture; remark: listed apart in the source
# Description: Antimicrobial activity against Escherichia coli expressing beta-lactamase P99 by CLSI broth microdilution method
# Escherichia coli [38] = experiment: microbe, parasite or virus in culture; remark: listed apart in the source
# Description: Antimicrobial activity against Escherichia coli expressing beta-lactamase Oxa-10 by CLSI broth microdilution method
# Escherichia coli [39] = experiment: microbe, parasite or virus in culture; remark: listed apart in the source
# Description: Antimicrobial activity against Escherichia coli expressing beta-lactamase Oxa-18 by CLSI broth microdilution method
# Escherichia coli [40] = experiment: microbe, parasite or virus in culture; remark: listed apart in the source
# Description: Antimicrobial activity against Escherichia coli expressing beta-lactamase Oxa-23 by CLSI broth microdilution method
# Escherichia coli [41] = experiment: microbe, parasite or virus in culture; remark: listed apart in the source
# Description: Antimicrobial activity against Escherichia coli expressing beta-lactamase Oxa-40 by CLSI broth microdilution method
# Escherichia coli [42] = experiment: microbe, parasite or virus in culture; remark: listed apart in the source
# Description: Antimicrobial activity against Escherichia coli expressing beta-lactamase Oxa-48 by CLSI broth microdilution method
# Escherichia coli [43] = experiment: microbe, parasite or virus in culture; remark: listed apart in the source
# Description: Antimicrobial activity against Escherichia coli expressing beta-lactamase Oxa-51 by CLSI broth microdilution method
# Escherichia coli [44] = experiment: microbe, parasite or virus in culture; remark: listed apart in the source
# Description: Antimicrobial activity against Escherichia coli expressing beta-lactamase Oxa-146 by CLSI broth microdilution method
# Escherichia coli [45] = experiment: microbe, parasite or virus in culture; remark: listed apart in the source
# Description: Antimicrobial activity against Escherichia coli expressing beta-lactamase Oxa-160 by CLSI broth microdilution method
# Escherichia coli [46] = experiment: microbe, parasite or virus in culture; remark: listed apart in the source
# Description: Antimicrobial activity against Escherichia coli expressing beta-lactamase Oxa-181 by CLSI broth microdilution method
# Escherichia coli [47] = experiment: microbe, parasite or virus in culture; remark: listed apart in the source
# Description: Antimicrobial activity against Escherichia coli expressing beta-lactamase Oxa-225 by CLSI broth microdilution method
compound,measurement,setting,value
NC(=O)OC[C@@H]1[C@H](NC(=O)/C(=N\OCC(=O)O)c2csc(N)n2)C(=O)N1S(=O)(=O)O [CARUMONAM],MIC,Escherichia coli [1],1 µg/mL
same,MIC,Escherichia coli [2],> 64 µg/mL
same,MIC,Escherichia coli [3],0.125 µg/mL
same,MIC,Escherichia coli [4],0.125 µg/mL
same,half-life,[5],> 83.3 days
same,Stability,Beta-lactamase SHV-12,Unstable
same,Stability,[6],Stable
same,Stability,[7],Stable
same,MIC,Escherichia coli [8],0.06 to 0.125 µg/mL
same,MIC,Escherichia coli [9],0.125 µg/mL
same,MIC,Escherichia coli [10],0.125 µg/mL
same,MIC,Escherichia coli [11],0.125 µg/mL
same,MIC,Escherichia coli [12],0.125 µg/mL
same,MIC,Escherichia coli [13],0.125 µg/mL
same,MIC,Escherichia coli [14],32 µg/mL
same,MIC,Escherichia coli [15],4 µg/mL
same,MIC,Escherichia coli [16],0.125 µg/mL
same,MIC,Escherichia coli [17],> 64 µg/mL
same,MIC,Escherichia coli [18],> 64 µg/mL
same,MIC,Escherichia coli [19],64 µg/mL
same,MIC,Escherichia coli [20],> 64 µg/mL
same,MIC,Escherichia coli [21],0.125 µg/mL
same,MIC,Escherichia coli [22],64 µg/mL
same,MIC,Escherichia coli [23],> 64 µg/mL
same,MIC,Escherichia coli [24],4 µg/mL
same,MIC,Escherichia coli [25],0.5 µg/mL
same,MIC,Escherichia coli [26],4 µg/mL
same,MIC,Escherichia coli [27],0.5 µg/mL
same,MIC,Escherichia coli [28],0.5 µg/mL
same,MIC,Escherichia coli [29],0.125 µg/mL
same,MIC,Escherichia coli [30],0.125 µg/mL
same,MIC,Escherichia coli [31],0.125 µg/mL
same,MIC,Escherichia coli [32],0.125 µg/mL
same,MIC,Escherichia coli [33],4 µg/mL
same,MIC,Escherichia coli [34],16 µg/mL
same,MIC,Escherichia coli [35],4 µg/mL
same,MIC,Escherichia coli [36],8 µg/mL
same,MIC,Escherichia coli [37],4 µg/mL
same,MIC,Escherichia coli [38],0.5 µg/mL
same,MIC,Escherichia coli [39],16 µg/mL
same,MIC,Escherichia coli [40],0.125 µg/mL
same,MIC,Escherichia coli [41],0.125 µg/mL
same,MIC,Escherichia coli [42],0.125 µg/mL
same,MIC,Escherichia coli [43],0.125 µg/mL
same,MIC,Escherichia coli [44],2 µg/mL
same,MIC,Escherichia coli [45],1 µg/mL
same,MIC,Escherichia coli [46],0.125 µg/mL
same,MIC,Escherichia coli [47],1 µg/mL
